Test results published in PMC9645260, “Small-molecule inhibitors of P-Rex guanine-nucleotide exchange factors” (Small GTPases, 2022).

Assays:
[1] = target: T1, P-Rex1 DH domain (Homo sapiens, UniProt Q8TCU6); experiment: Liposome-based GEF activity assay, isolated P-Rex1 DH domain; type: biochemical; details: 10 µM compound
T1 construct: 200 nM iDH EE-P-Rex1 DH domain (compounds 11–29); made in house; host or cells: Sf9 cells (baculovirus)
Procedure: Full-length N-terminally EE-tagged P-Rex1, P-Rex2, the P-Rex1 DH and DHPH domains and the P-Rex2 DH domain were produced in Sf9 cells using baculoviral transduction and were purified using anti-EE beads, as previously described. Briefly, frozen pellets from 500 ml of Sf9 culture infected with P-Rex expressing high-titre baculovirus were resuspended in ice-cold lysis Sf9-cell lysis buffer 2 (1x PBS, 1% Triton X-100, 5 mM EGTA, 1 mM EDTA, 25 mM NaF, 20 mM β-glycerophosphate, 1 mM DTT, 100 µM PMSF, 10 μg/ml each of leupeptin, pepstatin A, aprotinin and antipain) for 5 min and then ultracentrifuged at 118,000 × g for 1 h at 4°C. Supernatants were incubated with pre-washed anti-EE beads for 90 min on ice with end-over-end rotation. Beads were washed 4 times in wash buffer (2x PBS, 0.1% Triton X-100, 1 mM EGTA) and 5 times in elution buffer (1x PBS, 10% glycerol, 1 mM DTT, 1 mM EGTA, 0.01% Na azide), and protein was eluted by incubation with elution buffer containing Ac-EEYMPME peptide as described above. Protein was concentrated in a YM-100 Centricon (Millipore) at 5000 × g at 4°C. Fatty acid-free BSA and glycerol were added to final concentrations of 2 mg/ml and 50%, respectively. Protein concentration and purity were determined by coomassie staining of SDS-PAGE gels. Full-length Tiam1, expressed in and purified from Sf9 cells, was a kind gift from Angeliki Malliri, CRUK Manchester Institute, UK. […]
Liposome-based GEF activity assays were carried out essentially as described, except that GEFs were incubated with inhibitor compounds prior to the assay. […] Small GTPases were isolated using anti-EE antibody-coupled Sepharose beads or glutathione Sepharose beads, as appropriate, by incubation on ice for 90 min with end-over-end rotation, four washes in ice-cold wash buffer and resuspension of beads in Ultima Gold scintillation fluid (Perkin Elmer). ^35S-GTPγS incorporation was assessed by scintillation counting (Packard 1600TR, Liquid Scintillation Analyser).

[2] = target: T2, P-Rex1 DHPH domains (Homo sapiens, UniProt Q8TCU6); experiment: Liposome-based GEF activity assay, isolated P-Rex1 DHPH domains; type: biochemical; details: for P-Rex1 Rac-GEF activity reduced to / remaining activity at 10 µM: 10 µM compound; for P-Rex1 Rac-GEF activity reduced to: P-Rex1 DHPH domains; for IC50: liposome-based GEF assay, 200 nM prenylated EE-Rac2 as substrate, read-out: IC50 of inhibition of P-Rex1 DHPH Rac-GEF activity
T2 construct: 100 nM EE-P-Rex1 DHPH domains (PREX-in1, compounds 2–10 and 30–128); made in house; host or cells: Sf9 cells (baculovirus)
Procedure: Full-length N-terminally EE-tagged P-Rex1, P-Rex2, the P-Rex1 DH and DHPH domains and the P-Rex2 DH domain were produced in Sf9 cells using baculoviral transduction and were purified using anti-EE beads, as previously described. Briefly, frozen pellets from 500 ml of Sf9 culture infected with P-Rex expressing high-titre baculovirus were resuspended in ice-cold lysis Sf9-cell lysis buffer 2 (1x PBS, 1% Triton X-100, 5 mM EGTA, 1 mM EDTA, 25 mM NaF, 20 mM β-glycerophosphate, 1 mM DTT, 100 µM PMSF, 10 μg/ml each of leupeptin, pepstatin A, aprotinin and antipain) for 5 min and then ultracentrifuged at 118,000 × g for 1 h at 4°C. Supernatants were incubated with pre-washed anti-EE beads for 90 min on ice with end-over-end rotation. Beads were washed 4 times in wash buffer (2x PBS, 0.1% Triton X-100, 1 mM EGTA) and 5 times in elution buffer (1x PBS, 10% glycerol, 1 mM DTT, 1 mM EGTA, 0.01% Na azide), and protein was eluted by incubation with elution buffer containing Ac-EEYMPME peptide as described above. Protein was concentrated in a YM-100 Centricon (Millipore) at 5000 × g at 4°C. Fatty acid-free BSA and glycerol were added to final concentrations of 2 mg/ml and 50%, respectively. Protein concentration and purity were determined by coomassie staining of SDS-PAGE gels. Full-length Tiam1, expressed in and purified from Sf9 cells, was a kind gift from Angeliki Malliri, CRUK Manchester Institute, UK. The ITSN1 DHPH domains and Ect2 DHPH domains, produced in and purified from bacteria, were a kind gift from Kent Rossman, University of North Carolina, Chapel Hill, USA. The DOCK10 DHR2 domain, produced in and purified from bacteria, was a kind gift from Danni Fan, Institute of Cancer Research, London, UK. All small GTPase and GEF proteins were stored in aliquots at −80°C and were snap-frozen in liquid N2 after each use.
Liposome-based GEF activity assays were carried out essentially as described, except that GEFs were incubated with inhibitor compounds prior to the assay. GEFs (full-length P-Rex1, P-Rex2, and Tiam1, P-Rex1 DH and DHPH domains, P-Rex2 DH domain, ITSN1 DHPH domains, ECT2 DHPH domains or DOCK10 DHR2 domain) were diluted in 20 mM HEPES (pH 7.0 at 4°C), 200 mM KCl, 10% ethylene glycerol, 1% betaine, 500 µM EGTA, 0.01% azide. […] The final 10 µl samples contained GTPase, GEF and inhibitor at concentrations as stated, in 20 mM HEPES pH 7.5, 100 mM NaCl, 1 mM MgCl2, 1 mM EGTA, 1 mM DTT, 10 mg/ml fatty acid-free BSA, liposomes consisting of phosphatidylcholine, -serine and -inositol (200 µM each), with or without 10 µM PIP3, 1 µM GTPγS and 80 nM (1 µCi) ^35S-GTPγS. Positive controls contained additionally 2 mM EDTA to induce maximal GTP-loading of the GTPase. Samples were incubated at 30°C for 10 min, and reactions were stopped by the addition of 400 µl ice-cold wash buffer (1x PBS, 1 mM EGTA, 10 mM MgCl2, 1% Triton X-100, 100 µM GTP). Small GTPases were isolated using anti-EE antibody-coupled Sepharose beads or glutathione Sepharose beads, as appropriate, by incubation on ice for 90 min with end-over-end rotation, four washes in ice-cold wash buffer and resuspension of beads in Ultima Gold scintillation fluid (Perkin Elmer). ^35S-GTPγS incorporation was assessed by scintillation counting (Packard 1600TR, Liquid Scintillation Analyser).

[3] = 100 nM EE-P-Rex1 DHPH domains, 200 nM prenylated EE-Rac1, PREX-in1, compounds 2-10 and 30-128

T2 sequence (Q8TCU6 49-392 limits assumed): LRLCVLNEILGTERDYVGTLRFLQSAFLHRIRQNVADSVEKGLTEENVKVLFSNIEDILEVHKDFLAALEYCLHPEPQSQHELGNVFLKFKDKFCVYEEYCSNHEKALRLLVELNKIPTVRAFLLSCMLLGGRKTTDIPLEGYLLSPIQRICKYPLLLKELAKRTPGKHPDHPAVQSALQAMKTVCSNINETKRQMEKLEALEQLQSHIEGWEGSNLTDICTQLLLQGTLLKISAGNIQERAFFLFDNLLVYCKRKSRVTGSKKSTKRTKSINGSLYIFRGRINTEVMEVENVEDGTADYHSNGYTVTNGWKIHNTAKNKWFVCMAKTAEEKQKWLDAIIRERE
T1 sequence (Q8TCU6 49-240 limits assumed): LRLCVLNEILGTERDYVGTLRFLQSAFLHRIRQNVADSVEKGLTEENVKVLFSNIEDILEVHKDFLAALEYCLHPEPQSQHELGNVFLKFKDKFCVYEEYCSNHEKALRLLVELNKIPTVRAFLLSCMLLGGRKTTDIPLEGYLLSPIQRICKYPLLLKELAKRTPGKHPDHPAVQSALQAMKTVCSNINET

SMILES	P-Rex1 Rac-GEF activity reduced to ([1]; P-Rex1 DH domain)	remaining activity at 10 µM ([1]; 200 nM EE-P-Rex1 DH domain, 200 nM prenylated EE-Rac1, compounds 11-29) [%]	P-Rex1 Rac-GEF activity reduced to [2]	remaining activity at 10 µM [2, 3] [%]	IC50 [2] [nM]	% P-Rex1 activity remaining [2, 3] [%]
COc1ccc(-c2ccc(C3C(C#N)=C(N)Oc4n[nH]c(-c5ccc(Cl)cc5)c43)o2)cc1Cl (stereo not shown) [#76]			below 10%	-2.19		
N#CC1=C(N)Oc2n[nH]c(-c3ccc(C(F)(F)F)cc3)c2C1c1ccc(-c2ccc(Cl)cc2)o1 (stereo not shown) [#116]			below 10%	9	2700	
COc1ccc(-c2[nH]nc3c2C(c2ccc(-c4ccc(OC)c(Cl)c4)o2)C(C#N)=C(N)O3)cc1 (stereo not shown) [#61]			below 10%	2	2000	
COc1cc(NC(=O)c2ccc(-c3ccc(Cl)cc3)o2)cc(OC)c1 [#66]						58

More lines, now with the values ahead:

P-Rex1 Rac-GEF activity reduced to ([1]; P-Rex1 DH domain)	remaining activity at 10 µM ([1]; 200 nM EE-P-Rex1 DH domain, 200 nM prenylated EE-Rac1, compounds 11-29) [%]	P-Rex1 Rac-GEF activity reduced to [2]	remaining activity at 10 µM [2, 3] [%]	IC50 [2] [nM]	% P-Rex1 activity remaining [2, 3] [%]	SMILES
below 10%	4					CCc1[nH]nc2c1C(c1ccc(-c3ccc(Cl)cc3)o1)C(C#N)=C(N)O2 (stereo not shown) [#26]
		below 10%	1.69			COc1ccc(-c2ccc(C3C(C#N)=C(N)Oc4n[nH]c(-c5ccc(C)cc5)c43)o2)cc1Cl (stereo not shown) [#72]
